In data set [1] the test system is neuronal PC12 cells. To be noted: result in words, ref [26]; cited from earlier work. The source says:
(§1) In recent years, our investigation has focused on scoliid wasp venoms. Scoliid wasps hunt and sting beetle larvae under the ground. Comprehensive LC-MS and MS/MS analysis of the venom extract from Scolia decorata ventralis identified two major peptide components named α- and β-scoliidine. […] This is the first case of solitary wasp venom peptides showing neuroprotective activity. Similarly, venom components of Campsomeriella annulata annulata were in ...

The test system of data set [2] is acetylcholine (ACh) receptors of insect central nervous system. The settings on record: result in words; insects' central nervous system; ref [18],[19],[20]; cited from earlier work. The source says:
Scoliid wasp venoms were the first solitary wasp venoms to be studied between the years 1987 and 1990, and the presence of bradykinin-related peptides was reported. […] Since the f ...

Data set [3] concerns angiotensin-converting enzyme (ACE). The experiment in a line: Peptide stability / cleavage by angiotensin-converting enzyme. It is filed as in vitro ADME, rabbit. The settings on record: relative hydrolysis ratio; peptide 30 µmol·L^−1, ACE 7.5 ng, 37 °C, 4 h. An excerpt:
(§2) All chemicals used here were analytical reagent grade (purity higher than 95%) purchased from different brands. The AChE enzyme was derived from Electrophorus electricus Type VI-S, and the ACE I enzyme was derived from rabbit lung and was acquired from Sigma-Aldrich Corporation (St. Louis, MO, USA). Neprilysin and the substrates [Abz-FRK (Dnp) P-OH and Abz-RGFK (Dnp)-OH] were supplied by Prof. Adriana Carmona from the Department of Biophysics at Federal University of São Paulo (SP, Brazil). PC12 cell (American Type Culture Collection ® CRL-1721™; Manassas, VA, USA) was used in the present study. Cells were routinely cultured in DMEM medium (Sigma-Aldrich Corporation; St. Louis, MO, USA), according to a previous study.
(§3) The stability tests of peptides (30 µmol·L^−^1) were tested after incubation separately with ACE and NEP (7.5 ng) at 37 °C for 4 h, according to previous reports.

Data set [4] relates to human neprilysin (NEP). The experiment in a line: Peptide stability / cleavage by neprilysin. It is filed as in vitro ADME. The settings on record: relative hydrolysis ratio; peptide 30 µmol·L^−1, NEP 7.5 ng, 37 °C, 4 h.
Excerpt: as §2, §3

For data set [5], the system named is PC12 neuronal cells. To be noted: result in words, ref [25]; cited from earlier work.
Excerpt: as §1

For data set [6], the system named is PC12 cells. The experiment in a line: PC12 cytotoxicity (crystal violet cell viability). To be noted: result in words. It is filed as cell-based. As for the experimental part:
Figure 2 Cytotoxic effects of γ-, δ- and ε-scoliidines on PC12 viability. The cells were exposed to peptides at different concentrations and times. The control and DMSO groups correspond to cells that have not been treated and cells that have been treated with a 5% concentration of DMSO, respectively. […] Statistical analysis was conducted using a one-way analysis of variance (ANOVA), followed by Dunnett’s post-test. The statistical difference when compared to the control group (p < 0.05) was indicated by asterisks.
as §2
The cytotoxicity assay was performed using the staining of attached cells with crystal violet dye, according to the literature. Briefly, PC12 cells (5 × 10^3 cells per well; 96-well plates) were treated with different concentrations and times. Untreated cells or treated with DMSO (5%; v·v^−1) were included as controls. We measured the absorbance of dye solubilized in methanol at 570 nm using a microplate reader (BioTek Instruments, Inc., Winooski, VT, USA). We collected data from three distinct examinations, each performed three times, showing the percentage of cell viability relative to the control.
All results are shown as mean ± SD from three separate experiments (n = 3) in triplicate. One-way analysis of variance (ANOVA) was used for between-group comparisons, and Dunnett’s post-hoc test was used for multiple comparisons. Statistical significance was defined as p < 0.05. The analyses were done using GraphPad Prism 6.0 (GraphPad Software, Inc., La Jolla, CA, USA).

Data set [7] deals with acetylcholinesterase (AChE). Kind of data set: Acetylcholinesterase (AChE) activity, Ellman's method. Type of data set: biochemical, Electrophorus electricus. To be noted: compared to control (100 ± 1.6%), mean ± SD.
Excerpt: Figure 4 Effects of γ-, δ- and ε-scoliidines on the function of acetylcholinesterase (AChE). The AChE activity was quantified as a percentage of hydrolyzed acetylthiocholine iodine substrate compared to the control (C; blank box). The data obtained from three separate experiments, each performed three times, is presented as mean ± SD.
as §2
The inhibition of AChE activity was determined spectrophotometrically based on Ellman’s method, as previously reported. We calculated AChE activity as the hydrolyzed acetylthiocholine iodide substrate concentration as a percentage of control.
All results are shown as mean ± SD from three separate experiments (n = 3) in triplicate. […]

Data set [8] concerns PC12 neuronal cells. The experiment in a line: PC12 mitochondrial metabolism (MTT reduction) / neuroprotection against H2O2-induced oxidative stress. Type of data set: cell-based. The settings on record: H2O2 0.5 mmol·L^−1, 20 h, percent compared to control group, oxidative stress model. As for the experimental part: PC12 cells were pre-treated with γ-, δ- or ε-scoliidines for 4 h and then exposed to γ-, δ- or ε-scoliidines containing H2O2 for an additional 20 h, providing a protective model (Figure 3A). Cells subjected to a 20-h exposure to H2O2 represent an oxidative stress model.
Figure 3 Neuroprotective property of γ-, δ- and ε-scoliidines on mitochondrial metabolism of the PC12 cell line against H2O2-induced oxidative stress. (A) The experiment involved treating cells (5 × 10^3 cells per well in a 96-well plate) with γ, δ, and ε scoliidines (1 μmol·L^−1) for 4 h at 37 °C. After that, the medium was changed with a solution containing peptide (1 μmol·L^−1) and H2O2 (0.5 mmol·L^−1), and the cells were incubated for an additional 20 h. (B) Protective effects of peptides against neurotoxicity caused by oxidative stress. […]
PC12 cells (5 × 10^3 cells per well) seeded in a 96-well plate (Nest Biotechnology, Rahway, NJ, USA) were used to study the neuroprotective effects of peptides against H2O2-induced oxidative stress, according to a previous study. […] The mitochondrial metabolism was analyzed by 3-(4,5-dimethylthiazol-2-yl)-2,5-diphenyltetrazolium bromide (MTT; 0.5 mg·mL^−1 for 3 h of incubation at 37 °C) reduction assay. The absorbance of the MTT formazan dissolved in 100% DMSO was measured at a wavelength of 540 nm using a spectrophotometer (BioTek Instruments, Inc., Winooski, VT, USA). […]
On the technique in general: Tetrazolium dyes change colour on reduction, which living cells bring about.

The mark [9] stands for this setting: all concentrations and times assessed, 570 nm.

Where no end group is shown, it is not given here.

For the compound PRLRRLTGLSPLR [α-campsomerin], the “cell growth potentiating effect” value in data set [1] is given as “showed a cell growth potentiating effect”. For the compound RPPGFTPFR [Thr^6-bradykinin], the “blocking action on ACh receptors” value in data set [2] is given as “showing a blocking action on ACh receptors”. Turning to DYVTVKGFSPLRKA [β-scoliidine], the “Cleavage (%) ACE” value in data set [3] is on record as less than 0.01%. Also, the “Cleavage (%) NEP” value in data set [4] was less than 0.01%.

Consider DYVTVKGFSPLR [α-scoliidine], for which the “neuroprotective effect against oxidative stress-induced neurotoxicity” value in data set [5] is recorded as “only β-scoliidine showed a neuroprotective effect”. Turning to YVTVKGFSPLREP [δ-scoliidine], the cell viability entry in data set [6] (setting [9]) is “cell viability remained unchanged”. Besides, the “Cleavage (%) ACE” value in data set [3] is on record as less than 0.01%. The “Cleavage (%) NEP” value in data set [4] is listed as less than 0.01%.

As for PRLRRLTGLSPLRAP [β-campsomerin], in data set [1], the “cell growth potentiating effect” value is “had no effect”. As for `C[S+](C)[O-]` [DMSO, reference compound], in data set [6] (DMSO 5% (v·v^−1)), the “cell viability with DMSO” value is listed as “decrease in cell viability”. As for YVTVKGFSPLR [γ-scoliidine], the cell viability result in data set [6] (setting [9]) is “cell viability remained unchanged”. For the same compound, the “Cleavage (%) ACE” value in data set [3] is less than 0.01%. Moreover, the “Cleavage (%) NEP” value in data set [4] is on record as less than 0.01%. For the compound DYVTVKGFSPLREP [ε-scoliidine], the cell viability entry was “enhanced cell viability” in data set [6] (0.01 μmoL·L^−1, up to 6 h of treatment, 570 nm, three experiments in triplicate) and “cell viability decreased” in data set [6] (10 μmoL·L^−1, 24 h, 570 nm, three experiments in triplicate). The “concentration dependence of decrease in cell viability” value in data set [6] (570 nm) is listed as “decrease in cell viability was dependent on the concentration”. In addition, in data set [3], the “Cleavage (%) ACE” value is listed as less than 0.01%. Besides, the “Cleavage (%) NEP” value in data set [4] was less than 0.01%.

Take “RPPGFSPFR [bradykinin, reference compound]”: in data set [3], the “Cleavage (%) ACE” value was found to be 100%. Moreover, the “Cleavage (%) NEP” value in data set [4] amounted to 100%. As to `CCOP(=O)(OCC)OP(=O)(OCC)OCC` [TEPP, tetraethyl pyrophosphate], in data set [7], the “AChE activity with positive control” value amounted to 27.8 ± 6.5%.

Take `OO` [H2O2]: the “mitochondrial metabolism of PC12 cells treated only with H2O2” value in data set [8] came out at 75.8 ± 2.4%. On to RPPGFTPFRKA [Megascoliakinin], for which the “blocking action on ACh receptors” value in data set [2] is “showing a blocking action on ACh receptors”.
